Where “and” joins values, the source holds several entries; their conditions need not be identical. Equal entries are not always repeated. Structures can show the parent of a compound that is named as a salt. Where two headings read alike, the source gives them in different places.
How the values were obtained:
[1] = biological target: T1, human 5-HT2C receptor (Homo sapiens, UniProt P28335); test: Competition binding to the human 5-HT2C receptor ([3H]mesulergine, HeLa-5-HT2C membranes); conditions: for Selectivity 5-HT2C/2A (binding, in parentheses): from Ki values, Table 1; for Ki: human receptor, [3H]mesulergine displacement, no unit in the table, nM, read-out: 5-HT2C Ki (in parentheses) (converted)
T1 construct: expressed in transfected cells; host or cells: HeLa (HeLa-5-HT2C cell line)
T1 sequence (P28335 33-458): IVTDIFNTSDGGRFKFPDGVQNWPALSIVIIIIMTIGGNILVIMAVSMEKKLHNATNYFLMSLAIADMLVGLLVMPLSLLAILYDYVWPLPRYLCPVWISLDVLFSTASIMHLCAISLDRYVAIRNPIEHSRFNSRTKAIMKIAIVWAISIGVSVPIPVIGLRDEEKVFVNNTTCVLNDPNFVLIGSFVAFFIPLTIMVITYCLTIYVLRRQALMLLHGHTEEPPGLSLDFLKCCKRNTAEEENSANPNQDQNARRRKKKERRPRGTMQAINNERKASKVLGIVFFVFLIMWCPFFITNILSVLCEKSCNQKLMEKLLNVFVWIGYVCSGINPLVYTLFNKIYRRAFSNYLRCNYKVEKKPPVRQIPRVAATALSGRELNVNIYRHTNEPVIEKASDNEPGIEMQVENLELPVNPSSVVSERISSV

[2] = biological target: T1, human 5-HT2C receptor; test: Ca2+ mobilization in HeLa h5-HT2C cells; format: cell-based
[3] = biological target: human 5-HT2B receptor (Homo sapiens, UniProt P41595); test: Competition binding to the human 5-HT2B receptor ([3H]LSD, CHO-5-HT2B membranes)
[4] = biological target: T2, human 5-HT2A receptor (Homo sapiens, UniProt P28223); test: Ca2+ mobilization in CHO h5-HT2A cells; format: cell-based; conditions: for EC50: Ca2+ mobilization, no unit in the table, nM, read-out: 5-HT2A EC50 (in parentheses) (converted); for Selectivity 5-HT2A/2C (functional): from EC50 values, Table 2; for Emax: relative efficacy, % of response to 5-HT
T2 construct: expressed in transfected cells; host or cells: CHO (CHO-5-HT2A cell line)

[5] = biological target: T2, human 5-HT2A receptor; test: Competition binding to the human 5-HT2A receptor ([3H]ketanserin, CHO-5-HT2A membranes); conditions: for Selectivity 5-HT2A/2C (binding): from Ki values, Table 1; for Ki: human receptor, [3H]ketanserin displacement, no unit in the table, nM, read-out: 5-HT2A Ki (in parentheses) (converted)
[6] = Ca2+ mobilization; no unit in the table, nM; read-out: 5-HT2C EC50 (in parentheses) (converted)

Sequence of human 5-HT2B receptor (P41595 whole entry): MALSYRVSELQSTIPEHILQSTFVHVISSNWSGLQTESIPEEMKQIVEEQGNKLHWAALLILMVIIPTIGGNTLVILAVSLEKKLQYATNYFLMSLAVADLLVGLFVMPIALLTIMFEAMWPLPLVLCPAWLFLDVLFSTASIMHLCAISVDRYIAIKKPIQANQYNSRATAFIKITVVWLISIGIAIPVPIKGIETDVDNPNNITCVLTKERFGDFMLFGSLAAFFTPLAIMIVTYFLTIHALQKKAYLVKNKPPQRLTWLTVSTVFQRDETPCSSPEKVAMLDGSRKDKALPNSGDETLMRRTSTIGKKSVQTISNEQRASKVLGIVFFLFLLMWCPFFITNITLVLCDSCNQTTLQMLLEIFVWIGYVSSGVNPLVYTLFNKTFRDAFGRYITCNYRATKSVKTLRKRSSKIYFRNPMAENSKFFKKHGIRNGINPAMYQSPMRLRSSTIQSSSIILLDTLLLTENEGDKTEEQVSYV
T2 sequence (P28223 whole entry): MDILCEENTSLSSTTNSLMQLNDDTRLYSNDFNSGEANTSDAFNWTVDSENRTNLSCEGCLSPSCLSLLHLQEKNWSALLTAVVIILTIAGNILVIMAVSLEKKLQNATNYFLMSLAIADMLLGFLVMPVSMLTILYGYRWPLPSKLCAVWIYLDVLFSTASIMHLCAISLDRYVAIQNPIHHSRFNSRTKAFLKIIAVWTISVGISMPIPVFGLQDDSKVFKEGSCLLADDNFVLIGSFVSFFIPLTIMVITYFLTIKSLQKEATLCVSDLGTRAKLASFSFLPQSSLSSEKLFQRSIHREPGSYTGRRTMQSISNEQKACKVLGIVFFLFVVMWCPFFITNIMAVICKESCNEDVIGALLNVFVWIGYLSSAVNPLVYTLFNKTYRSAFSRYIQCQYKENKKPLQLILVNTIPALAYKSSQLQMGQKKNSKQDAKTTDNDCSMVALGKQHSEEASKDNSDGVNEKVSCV

SMILES | melting point [°C] | Selectivity 5-HT2C/2A (binding, in parentheses) [1] | Ki [1] [nM] | EC50 [2, 6] [nM] | Emax ([2]; HeLa; read-out: 5-HT2C % Emax) [%] | Selectivity 5-HT2C/2A (functional, in parentheses) ([2]; from EC50 values, Table 2) | Ki [3] [µM] | EC50 [4] | Selectivity 5-HT2A/2C (functional) [4] | Emax [4] [%] | Selectivity 5-HT2A/2C (binding) [5] | Ki [5] [nM] | also measured
Oc1cccc(CNCCc2c[nH]c3ccccc23)c1 (as salt: fumarate) [Compound 7, N-(3-Hydroxybenzyl)-[2-(1H-indol-3-yl)ethyl]amine] | 206 to 207 | – | – | – | – | – | – | – | – | – | – | – | –
Cc1ccc(O)c(CNCCc2c[nH]c3ccccc23)c1 (as salt: fumarate) [Compound 23, N-(2-Hydroxy-5-methylbenzyl)-[2-(1H-indol-3-yl)ethyl]amine] | 183 to 185 | – | – | – | – | – | – | – | – | – | – | – | –
COc1ccc(O)c(CNCCc2c[nH]c3ccc(OC)cc23)c1 (as salt: fumarate) [Compound 42, N-(2-Hydroxy-5-methoxybenzyl)-[2-(5-methoxy-1H-indol-3-yl)ethyl]amine] | 196 to 197 | – | – | – | – | – | – | – | – | – | – | – | –
COc1ccc2[nH]cc(CCNCc3cc(F)ccc3O)c2c1 (as salt: fumarate) [Compound 43, N-(5-Fluoro-2-hydroxybenzyl)-[2-(5-methoxy-1H-indol-3-yl)ethyl]amine] | 200 to 201 | – | – | – | – | – | – | – | – | – | – | – | –
Oc1ccccc1CNCCc1c[nH]c2ccccc12 (as salt: hydrochloride) [Compound 2, N-(2-Hydroxybenzyl)-[2-(1H-indol-3-yl)ethyl]amine] | 222 to 223 | – | – | – | – | – | – | – | – | – | – | – | –
CCOc1ccc(CNCCc2c[nH]c3ccccc23)cc1 (as salt: hydrochloride) [Compound 15, N-(4-Ethoxybenzyl)-[2-(1H-indol-3-yl)ethyl]amine] | 206 to 208 | – | – | – | – | – | – | – | – | – | – | – | –
COc1cccc(CNCCc2c[nH]c3ccccc23)c1OC (as salt: hydrochloride) [Compound 20, N-(2,3-Dimethoxybenzyl)-[2-(1H-indol-3-yl)ethyl]amine] | 210 to 212 | – | – | – | – | – | – | – | – | – | – | – | –
Oc1ccc(F)cc1CNCCc1c[nH]c2ccccc12 (as salt: hydrochloride) [Compound 24, N-(5-Fluoro-2-hydroxybenzyl)-[2-(1H-indol-3-yl)ethyl]amine] | 185 to 186 | – | – | – | – | – | – | – | – | – | – | – | –
COc1ccc(F)cc1CNCCc1c[nH]c2ccccc12 (as salt: hydrochloride) [Compound 25, N-(5-Fluoro-2-methoxybenzyl)-[2-(1H-indol-3-yl)ethyl]amine] | 179 to 180 | – | – | – | – | – | – | – | – | – | – | – | –
Oc1ccc(Br)cc1CNCCc1c[nH]c2ccccc12 (as salt: hydrochloride) [Compound 26, N-(5-Bromo-2-hydroxybenzyl)-[2-(1H-indol-3-yl)ethyl]amine] | 188 to 189 | – | – | – | – | – | – | – | – | – | – | – | –
COc1ccc(Br)cc1CNCCc1c[nH]c2ccccc12 (as salt: hydrochloride) [Compound 27, N-(5-Bromo-2-methoxybenzyl)-[2-(1H-indol-3-yl)ethyl]amine] | 192 to 193 | – | – | – | – | – | – | – | – | – | – | – | –
COc1ccc(Cl)cc1CNCCc1c[nH]c2ccccc12 (as salt: hydrochloride) [Compound 28, N-(5-Chloro-2-methoxybenzyl)-[2-(1H-indol-3-yl)ethyl]amine] | 184 to 185 | – | – | – | – | – | – | – | – | – | – | – | –
COc1ccc(OC)c(CNCCc2c[nH]c3ccccc23)c1 (as salt: hydrochloride) [Compound 29, N-(2,5-Dimethoxybenzyl)-[2-(1H-indol-3-yl)ethyl]amine] | 175 to 176 | – | – | – | – | – | – | – | – | – | – | – | –
O=[N+]([O-])c1ccc(O)c(CNCCc2c[nH]c3ccccc23)c1 (as salt: hydrochloride) [Compound 30, N-(5-Nitro-2-hydroxybenzyl)-[2-(1H-indol-3-yl)ethyl]amine] | 194 to 196 | – | – | – | – | – | – | – | – | – | – | – | –
Oc1cc(Br)ccc1CNCCc1c[nH]c2ccccc12 (as salt: hydrochloride) [Compound 31, N-(4-Bromo-2-hydroxybenzyl)-[2-(1H-indol-3-yl)ethyl]amine] | 192 to 194 | – | – | – | – | – | – | – | – | – | – | – | –
COc1ccc(CNCCc2c[nH]c3ccccc23)c(OC)c1 (as salt: hydrochloride) [Compound 32, N-(2,4-Dimethoxybenzyl)-[2-(1H-indol-3-yl)ethyl]amine] | 184 to 186 | – | – | – | – | – | – | – | – | – | – | – | –
Oc1cccc(Br)c1CNCCc1c[nH]c2ccccc12 (as salt: hydrochloride) [Compound 33, N-(6-Bromo-2-hydroxybenzyl)-[2-(1H-indol-3-yl)ethyl]amine] | 195 to 196 | – | – | – | – | – | – | – | – | – | – | – | –
Oc1cccc(Br)c1CNCCc1c[nH]c2ccccc12 [Compound 33, N-(6-Bromo-2-hydroxybenzyl)-[2-(1H-indol-3-yl)ethyl]amine] | – | 15 | 112 | 794 | 104 ± 2.91 | 7.41 | 0.0692 | 5890 nM | 0.13 | 34.4 ± 1.37 | 0.067 | 1660 | –
Oc1cccc(F)c1CNCCc1c[nH]c2ccccc12 [Compound 34, N-(6-Fluoro-2-hydroxybenzyl)-[2-(1H-indol-3-yl)ethyl]amine] | – | – | 155 | 18.6 | 91.7 ± 6.6 | 2.13 | 0.115 | 39.8 nM | 0.47 | 49.3 ± 3.23 | – | 229 | –
COc1ccc(CNCCc2c[nH]c3ccccc23)cc1OC [Compound 36, N-(3,4-Dimethoxybenzyl)-[2-(1H-indol-3-yl)ethyl]amine] | – | 1.09 | 1200 | 57.5 | 100 ± 2.85 | 38.9 | 0.288 | 2240 nM | 0.026 | 50.5 ± 8.27 | 0.92 | 1290 | –
COc1ccc2[nH]cc(CCNCc3ccccc3)c2c1 [Compound 37, N-Benzyl-[2-(5-methoxy-1H-indol-3-yl)ethyl]amine] | – | 0.34 | 95.5 | 14.4 | 113 ± 3.47 | 1.41 | 0.0166 | 20.4 nM | 0.71 | 63.2 ± 1.44 | 2.93 | 33.1 | –
COc1ccc2[nH]cc(CCNCc3ccccc3Cl)c2c1 [Compound 39, N-(2-Chlorobenzyl)-[2-(5-methoxy-1H-indol-3-yl)ethyl]amine] | – | 0.18 | 74.1 | 81.3 | 106 ± 4.32 | 0.15 | 0.0371 | 12 nM | 6.76 | 47.7 ± 1.57 | 5.51 | 13.5 | –
COc1ccc2[nH]cc(CCNCc3ccccc3Br)c2c1 [Compound 40, N-(2-Bromobenzyl)-[2-(5-methoxy-1H-indol-3-yl)ethyl]amine] | – | 0.18 | 70.8 | 27.5 | 105 ± 4.32 | 1.07 | 0.0288 | 29.5 nM | 0.93 | 44.8 ± 0.99 | 5.66 | 12.3 | –
COc1ccc2[nH]cc(CCNCc3ccc(Br)cc3)c2c1 [Compound 41, N-(4-Bromobenzyl)-[2-(5-methoxy-1H-indol-3-yl)ethyl]amine] | – | 1.02 | 380 | 132 | 93.5 ± 3.05 | 14.1 | 0.155 | 1860 nM | 0.071 | 60.5 ± 2.41 | 0.98 | 389 | –
COc1ccc(O)c(CNCCc2c[nH]c3ccc(OC)cc23)c1 [Compound 42, N-(2-Hydroxy-5-methoxybenzyl)-[2-(5-methoxy-1H-indol-3-yl)ethyl]amine] | – | 3.31 | 40.7 | – | – | 1.1 | 0.0204 | – | 0.91 | 43.6 ± 0.9 | 0.30 | 135 | Emax ([2]; HeLa, read-out: 5-HT2C % Emax): 89.4 ± 3.86%
COc1ccc2[nH]cc(CCNCc3cc(F)ccc3O)c2c1 [Compound 43, N-(5-Fluoro-2-hydroxybenzyl)-[2-(5-methoxy-1H-indol-3-yl)ethyl]amine] | – | 0.10 | 39.8 | 3.63 | 106 ± 3.05 | 0.38 | 0.00891 | 1.4 nM and 1.38 nM | 2.63 | 83.3 ± 2.26 | 9.66 | 3.98 | –

— article PMC6328172, “5-HT2 receptor binding, functional activity and selectivity in N-benzyltryptamines” (PLoS ONE, 2019)
